Laboratory results reported in ChEMBL document CHEMBL3804780, “Protective effect of novel substituted nicotine hydrazide analogues against hypoxic brain injury in neonatal rats via inhibition of caspase” (Bioorg Med Chem Lett, 2016).
Active and inactive are the calls of the source. No cut-off for these calls is given here.

Key:
[1] = molecular target: T1, Caspase-7 (Homo sapiens, UniProt P55210); assay: Inhibition of His-tagged human recombinant caspase 7 expressed in Escherichia coli using acetyl-Asp-Glu-Val-Asp-7- amido-4-methylcoumarin (Ac-DEVD-AMC) as substrate by fluorimetric assay
T1 sequence (P55210 whole entry): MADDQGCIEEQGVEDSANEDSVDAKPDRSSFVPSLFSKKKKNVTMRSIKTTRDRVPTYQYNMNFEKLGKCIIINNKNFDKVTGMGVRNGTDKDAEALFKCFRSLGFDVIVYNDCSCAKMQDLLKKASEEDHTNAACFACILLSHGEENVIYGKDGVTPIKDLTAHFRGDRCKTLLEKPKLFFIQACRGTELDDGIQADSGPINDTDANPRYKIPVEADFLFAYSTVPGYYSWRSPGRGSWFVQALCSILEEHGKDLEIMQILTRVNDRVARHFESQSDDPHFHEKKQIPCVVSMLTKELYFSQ

[2] = system: Rattus norvegicus; assay: Neuroprotective activity in hypoxic-ischemic Sprague-Dawley rat brain assessed as reduction in disruption of cell organelles at 30 mg/kg, ip administered 15 mins prior to examination measured after 48 hrs by transmission electron microscopic analysis; type: functional, organism-based
[3] = system: Rattus norvegicus; assay: Neuroprotective activity in hypoxic-ischemic ip dosed neonatal Sprague-Dawley rat brain assessed as increase in SOD levels administered 15 mins prior to examination measured after 48 hrs by microplate reader based method; type: functional, organism-based
[4] = system: Rattus norvegicus; assay: Neuroprotective activity in hypoxic-ischemic ip dosed neonatal Sprague-Dawley rat brain assessed as increase in T-AOC levels administered 15 mins prior to examination measured after 48 hrs by microplate reader based method; type: functional, organism-based
[5] = system: Rattus norvegicus; assay: Neuroprotective activity in hypoxic-ischemic ip dosed neonatal Sprague-Dawley rat brain assessed as increase in GSH-Px levels administered 15 mins prior to examination measured after 48 hrs by microplate reader based method; type: functional, organism-based
[6] = system: Rattus norvegicus; assay: Neuroprotective activity in hypoxic-ischemic ip dosed neonatal Sprague-Dawley rat brain assessed as decrease in MDA levels administered 15 mins prior to examination measured after 48 hrs by thiobarbituric acid method; type: functional, organism-based
[7] = system: Rattus norvegicus; assay: Neuroprotective activity in hypoxic-ischemic-induced neonatal Sprague-Dawley rat brain assessed as reduction brain infarction at 30 mg/kg, ip administered 15 mins prior to examination by microscopic analysis; type: functional, organism-based
[8] = system: Rattus norvegicus; assay: Neuroprotective activity in hypoxic-ischemic neonatal Sprague-Dawley rat brain assessed as distribution of neurons in cortex at 30 mg/kg, ip administered 15 mins prior to examination measured after 48 hrs by hematoxylin/eosin staining based microscopic analysis; type: functional, organism-based
[9] = system: Rattus norvegicus; assay: Neuroprotective activity in hypoxic-ischemic Sprague-Dawley rat brain assessed as regular shape of nucleus at 30 mg/kg, ip administered 15 mins prior to examination measured after 48 hrs by transmission electron microscopic analysis; type: functional, organism-based
[10] = species: Rattus norvegicus; settings: Sprague-Dawley, Brain, 30 mg/kg
Description: Neuroprotective activity in hypoxic-ischemic neonatal Sprague-Dawley rat brain assessed as inhibition of elevated caspase 3 expression levels at 30 mg/kg, ip administered 15 mins prior to examination measured after 48 hrs by Western blot analysis

[11] = system: Rattus norvegicus; assay: Neuroprotective activity in hypoxic-ischemic ip dosed neonatal Sprague-Dawley rat brain assessed as increase in CAT levels administered 15 mins prior to examination measured after 48 hrs by microplate reader based method; type: functional, organism-based
[12] = system: Rattus norvegicus; assay: Neuroprotective activity in hypoxic-ischemia-induced neonatal Sprague-Dawley rat brain assessed as reduction brain infarction at 10 mg/kg, ip administered 15 mins prior to examination by microscopic analysis; type: functional, organism-based
[13] = system: Rattus norvegicus; assay: Neuroprotective activity in hypoxic-ischemic neonatal Sprague-Dawley rat brain assessed as reduction in interstitial edema at 30 mg/kg, ip administered 15 mins prior to examination measured after 48 hrs by hematoxylin/eosin staining based microscopic analysis; type: functional, organism-based
[14] = system: Rattus norvegicus; assay: Neuroprotective activity in hypoxic-ischemia-induced neonatal Sprague-Dawley rat brain assessed as reduction brain infarction at 20 mg/kg, ip administered 15 mins prior to examination by microscopic analysis; type: functional, organism-based
[15] = molecular target: T2, Caspase-3 (Homo sapiens, UniProt P42574); assay: Inhibition of His-tagged human recombinant caspase 3 expressed in Escherichia coli using acetyl-Asp-Glu-Val-Asp-7- amido-4-methylcoumarin (Ac-DEVD-AMC) as substrate by fluorimetric assay
T2 sequence (P42574 whole entry): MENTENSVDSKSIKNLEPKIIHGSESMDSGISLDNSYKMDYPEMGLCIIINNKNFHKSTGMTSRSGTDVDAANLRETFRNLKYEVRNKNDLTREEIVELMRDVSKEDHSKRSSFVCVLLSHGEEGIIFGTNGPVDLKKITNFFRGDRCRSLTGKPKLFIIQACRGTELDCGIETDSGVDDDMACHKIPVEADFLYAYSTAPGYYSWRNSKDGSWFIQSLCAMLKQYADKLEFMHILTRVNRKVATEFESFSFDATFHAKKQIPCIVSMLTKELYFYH

SMILES | IC50 [1] [µM] | IC50 [15] [µM] | other results
Cc1nc(-c2cccc(Cl)c2)ccc1C(=O)N/N=C1\C(=O)N(C)c2ccccc21 | > 200 |  | 
Cc1nc(-c2ccc(F)cc2)ccc1C(=O)N/N=C1\C(=O)N(C)c2ccccc21 | > 200 |  | Activity [2]: Active; Activity [3]: Dose-dependent effect; Activity [4]: Dose-dependent effect; Activity [5]: Dose-dependent effect; Activity [6]: Active; Activity [7]: Active; Activity [8]: Active; Activity [9]: Active; inhibition [10]: Active; Activity [11]: Dose-dependent effect; Activity [12]: Active; Activity [13]: Active; Activity [14]: Active
Cc1ccc(-c2ccc(C(=O)N/N=C3\C(=O)N(C)c4ccccc43)c(C)n2)cc1 |  | 375 | 
COc1cccc(-c2ccc(C(=O)N/N=C3\C(=O)N(C)c4ccccc43)c(C)n2)c1 | > 200 | 547 | 
Cc1nc(-c2ccc([N+](=O)[O-])cc2)ccc1C(=O)N/N=C1\C(=O)N(C)c2ccccc21 |  | 202 | 
COc1cc(-c2ccc(C(=O)N/N=C3\C(=O)N(C)c4ccccc43)c(C)n2)cc(OC)c1OC |  | 674 | 
Cc1cccc(-c2ccc(C(=O)N/N=C3\C(=O)N(C)c4ccccc43)c(C)n2)c1 |  | 310 | 
Cc1nc(-c2cccc([N+](=O)[O-])c2)ccc1C(=O)N/N=C1\C(=O)N(C)c2ccccc21 |  | 278 | 
Cc1nc(-c2cccc(Br)c2)ccc1C(=O)N/N=C1\C(=O)N(C)c2ccccc21 |  | 130 | 
Cc1nc(-c2ccccc2[N+](=O)[O-])ccc1C(=O)N/N=C1\C(=O)N(C)c2ccccc21 | > 200 | 297 | 
CC(=O)N[C@@H](CC(=O)O)C(=O)N[C@@H](CCC(=O)O)C(=O)N[C@H](C(=O)N[C@H](C=O)CC(=O)O)C(C)C | 0.0604 |  | 
Cc1nc(-c2ccccc2)ccc1C(=O)N/N=C1\C(=O)N(C)c2ccccc21 |  | 456 | 
COc1ccc(-c2ccc(C(=O)N/N=C3\C(=O)N(C)c4ccccc43)c(C)n2)cc1 | > 200 | 487 | 
Cc1nc(-c2ccc(Br)cc2)ccc1C(=O)N/N=C1\C(=O)N(C)c2ccccc21 |  | 122 | 
COc1ccc(-c2ccc(C(=O)N/N=C3\C(=O)N(C)c4ccccc43)c(C)n2)cc1OC | > 200 | 599 | 
Cc1nc(-c2ccccc2Br)ccc1C(=O)N/N=C1\C(=O)N(C)c2ccccc21 |  | 132 | 
Cc1ccccc1-c1ccc(C(=O)N/N=C2\C(=O)N(C)c3ccccc32)c(C)n1 |  | 351 | 
COc1ccccc1-c1ccc(C(=O)N/N=C2\C(=O)N(C)c3ccccc32)c(C)n1 | > 200 | 552 | 
